# Experimental data taken from patent US8927717B1, “Thiochromeno[2,3-c]quinolin-12-one derivatives, preparation method and application thereof” (National Defense Medical Center, priority 2014, dated 2015).
# Legend:
# SNB-19 = assay type: cell-based; conditions: 10^−5 molar
# SN12C = assay type: cell-based; conditions: 10^−5 molar
# ACHN = assay type: cell-based; conditions: 10^−5 molar
# UO-31 = assay type: cell-based; conditions: 10^−5 molar
# SF-268 = assay type: cell-based; conditions: 10^−5 molar
# HOP-92 = assay type: cell-based; conditions: Non-small cell lung cancer; 10^−5 molar; 48 hours; SRB
# PC-3 = assay type: cell-based; conditions: 10^−5 molar
# IGROV1 = assay type: cell-based; conditions: 10^−5 molar
# HT29 = assay type: cell-based; conditions: 10^−5 molar
# UACC-257 = assay type: cell-based; conditions: 10^−5 molar
# RPMI-8226 = assay type: cell-based; conditions: 10^−5 molar
# BT-549 = assay type: cell-based; conditions: 10^−5 molar
# RXF 393 = assay type: cell-based; conditions: 10^−5 molar
# NCI-H460 = assay type: cell-based; conditions: 10^−5 molar
# HOP-62 = assay type: cell-based; conditions: 10^−5 molar
# HCT-116 = assay type: cell-based; conditions: 10^−5 molar
# NCI/ADR-RES = assay type: cell-based; conditions: 10^−5 molar
# K-562 = assay type: cell-based; conditions: 10^−5 molar
# HCC-2998 = assay type: cell-based; conditions: 10^−5 molar
# OVCAR-5 = assay type: cell-based; conditions: 10^−5 molar
# NCI-H23 = assay type: cell-based; conditions: 10^−5 molar
# SNB-75 = assay type: cell-based; conditions: 10^−5 molar
# TK-10 = assay type: cell-based; conditions: 10^−5 molar
# KM12 = assay: cells; assay type: cell-based; conditions: 10^−5 molar
# OVCAR-8 = assay type: cell-based; conditions: 10^−5 molar
# NCI-H522 = assay type: cell-based; conditions: 10^−5 molar
# MCF7 = assay type: cell-based; conditions: 10^−5 molar
# MALME-3M = assay type: cell-based; conditions: 10^−5 molar
# COLO 205 = assay type: cell-based; conditions: 10^−5 molar
# 786-0 = assay type: cell-based; conditions: 10^−5 molar
# SK-MEL-28 = assay type: cell-based; conditions: 10^−5 molar
# SF-539 = assay type: cell-based; conditions: 10^−5 molar
# M14 = assay type: cell-based; conditions: 10^−5 molar
# NCI-H226 = assay type: cell-based; conditions: 10^−5 molar
# A498 = assay type: cell-based; conditions: 10^−5 molar
# T-47D = assay type: cell-based; conditions: 10^−5 molar
# SW-620 = assay type: cell-based; conditions: 10^−5 molar
# A549/ATCC = assay type: cell-based; conditions: 10^−5 molar
# CCRF-CEM = assay type: cell-based; conditions: 10^−5 molar
# MDA-MB-486 = assay type: cell-based; conditions: 10^−5 molar
# HS 578T = assay type: cell-based; conditions: 10^−5 molar
# OVCAR-4 = assay type: cell-based; conditions: 10^−5 molar
# UACC-62 = assay type: cell-based; conditions: 10^−5 molar
# 60 cancer cell lines = assay: NCI 60-cell screen, SRB, whole panel (mean, delta, range); assay type: cell-based; conditions: 10^−5 molar
# MDA-MB-435 = assay type: cell-based; conditions: 10^−5 molar
# DU-145 = assay type: cell-based; conditions: 10^−5 molar
# MOLT-4 = assay type: cell-based; conditions: 10^−5 molar
# U251 = assay type: cell-based; conditions: CNS cancer; 10^−5 molar; 48 hours; SRB
# HCT-15 = assay type: cell-based; conditions: 10^−5 molar
# LOX IMVI = assay type: cell-based; conditions: Melanoma; 10^−5 molar; 48 hours; SRB
# HL-60(TB) = assay type: cell-based; conditions: 10^−5 molar
# SK-MEL-5 = assay type: cell-based; conditions: 10^−5 molar
# SK-MEL-2 = assay type: cell-based; conditions: Melanoma; 10^−5 molar; 48 hours; SRB
# SR = assay type: cell-based; conditions: 10^−5 molar
# SF-295 = assay type: cell-based; conditions: 10^−5 molar
# MDA-MB-231/ATCC = assay type: cell-based; conditions: 10^−5 molar
# CAKI-1 = assay type: cell-based; conditions: 10^−5 molar
# SK-OV-3 = assay type: cell-based; conditions: 10^−5 molar
# OVCAR-3 = assay type: cell-based; conditions: OVCAR-3; 10^−5 molar
# [1] = Non-small cell lung cancer, 48 hours, SRB
structure (smiles),measurement,setting,value
"CCC(CC)Nc1nc2ccccc2c2c(=O)c3cc(Cl)ccc3sc12 [Compound N6, 10-Chloro-6-(pentan-3-ylamino)-12H-thiochromeno[2,3-c]quinolin-12-one]",Growth percent SNB-19,"SNB-19; CNS cancer, 48 hours, SRB",99.01%
same,Growth percent SN12C,"SN12C; Renal cancer, 48 hours, SRB",94.28%
same,Growth percent ACHN,"ACHN; Renal cancer, 48 hours, SRB",84.92%
same,Growth percent UO-31,"UO-31; Renal cancer, 48 hours, SRB",78.57%
same,Growth percent SF-268,"SF-268; CNS cancer, 48 hours, SRB",102.86%
same,melting point,,160 to 161 °C
same,Growth percent HOP-92,HOP-92,83.26%
same,Growth percent PC-3,"PC-3; Prostate cancer, 48 hours, SRB",84.63%
same,Growth percent IGROV1,"IGROV1; Ovarian cancer, 48 hours, SRB",80.40%
same,Growth percent HT29,"HT29; Colon cancer, 48 hours, SRB",116.70%
same,Growth percent UACC-257,"UACC-257; Melanoma, 48 hours, SRB",99.44%
same,Growth percent RPMI-8226,"RPMI-8226; Leukemia, 48 hours, SRB",108.60%
same,Growth percent BT-549,"BT-549; Breast cancer, 48 hours, SRB",109.76%
same,Growth percent RXF 393,"RXF 393; Renal cancer, 48 hours, SRB",93.23%
same,Growth percent NCI-H460,NCI-H460; [1],99.42%
same,Growth percent HOP-62,HOP-62; [1],95.32%
same,Growth percent HCT-116,"HCT-116; Colon cancer, 48 hours, SRB",99.01%
same,Growth percent NCI/ADR-RES,"NCI/ADR-RES; Ovarian cancer, 48 hours, SRB",101.32%
same,Growth percent K-562,"K-562; Leukemia, 48 hours, SRB",95.25%
same,Growth percent HCC-2998,"HCC-2998; Colon cancer, 48 hours, SRB",119.79%
same,Growth percent OVCAR-5,"OVCAR-5; Ovarian cancer, 48 hours, SRB",99.96%
same,Growth percent NCI-H23,NCI-H23; [1],94.17%
same,Growth percent SNB-75,"SNB-75; CNS cancer, 48 hours, SRB",73.24%
same,Growth percent TK-10,"TK-10; Renal cancer, 48 hours, SRB",138.89%
same,Growth percent KM12,"KM12; Colon cancer, 48 hours, SRB",94.04%
same,Growth percent OVCAR-8,"OVCAR-8; Ovarian cancer, 48 hours, SRB",95.31%
same,Growth percent NCI-H522,NCI-H522; [1],99.02%
same,Growth percent MCF7 (Table 2: MCF),"MCF7; Breast cancer, 48 hours, SRB",67.12%
same,Growth percent MALME-3M,"MALME-3M; Melanoma, 48 hours, SRB",92.36%
same,Growth percent COLO 205,"COLO 205; Colon cancer, 48 hours, SRB",107.68%
same,Growth percent 786-0,"786-0; Renal cancer, 48 hours, SRB",108.84%
same,Growth percent SK-MEL-28,"SK-MEL-28; Melanoma, 48 hours, SRB",98.40%
same,Growth percent SF-539,"SF-539; CNS cancer, 48 hours, SRB",95.09%
same,Growth percent M14,"M14; Melanoma, 48 hours, SRB",107.34%
same,Growth percent NCI-H226,NCI-H226; [1],79.22%
same,Growth percent A498,"A498; Renal cancer, 48 hours, SRB",103.44%
same,Growth percent T-47D,"T-47D; Breast cancer, 48 hours, SRB",73.62%
same,Growth percent SW-620,"SW-620; Colon cancer, 48 hours, SRB",104.94%
same,Growth percent A549/ATCC,A549/ATCC; [1],91.04%
same,Growth percent CCRF-CEM,"CCRF-CEM; Leukemia, 48 hours, SRB",93.72%
same,Growth percent MDA-MB-486,"MDA-MB-486; Breast cancer, 48 hours, SRB",95.79%
same,Growth percent HS 578T,"HS 578T; Breast cancer, 48 hours, SRB",89.81%
same,Growth percent OVCAR-4,"OVCAR-4; Ovarian cancer, 48 hours, SRB",98.77%
same,Growth percent UACC-62,"UACC-62; Melanoma, 48 hours, SRB",83.74%
same,"Growth percent, Delta","60 cancer cell lines; delta over the cell panel, 48 hours, SRB",29.82%
same,"Growth percent, Mean","60 cancer cell lines; mean over the cell panel, 48 hours, SRB",96.94%
same,"Growth percent, Range","60 cancer cell lines; range over the cell panel, 48 hours, SRB",74.81%
same,Growth percent MDA-MB-435,"MDA-MB-435; Melanoma, 48 hours, SRB",108.13%
same,Growth percent DU-145,"DU-145; Prostate cancer, 48 hours, SRB",109.54%
same,Growth percent MOLT-4,"MOLT-4; Leukemia, 48 hours, SRB",103.08%
same,Growth percent U251,U251,97.05%
same,Growth percent HCT-15,"HCT-15; Colon cancer, 48 hours, SRB",95.35%
same,Growth percent LOX IMVI,LOX IMVI,89.35%
same,Growth percent HL-60(TB),"HL-60(TB); Leukemia, 48 hours, SRB",141.93%
same,Growth percent SK-MEL-5,"SK-MEL-5; Melanoma, 48 hours, SRB",90.08%
same,Growth percent SK-MEL-2,SK-MEL-2,104.97%
same,Growth percent SR,"SR; Leukemia, 48 hours, SRB",104.59%
same,Growth percent SF-295,"SF-295; CNS cancer, 48 hours, SRB",104.18%
same,Growth percent MDA-MB-231/ATCC,"MDA-MB-231/ATCC; Breast cancer, 48 hours, SRB",77.83%
same,Growth percent CAKI-1,"CAKI-1; Renal cancer, 48 hours, SRB",73.26%
same,Growth percent SK-OV-3,"SK-OV-3; Ovarian cancer, 48 hours, SRB",99.71%
"O=c1c2cc(Cl)ccc2sc2c(NC3CCCCC3)nc3ccccc3c12 [Compound N21, 10-Chloro-6-(cyclohexylamino)-12H-thiochromeno[2,3-c]quinolin-12-one]",Growth percent,SNB-19; SNB-19,106.72%
same,Growth percent,SN12C; SN12C,89.12%
same,Growth percent,ACHN; ACHN,97.31%
same,Growth percent,UO-31; UO-31,72.52%
same,Growth percent,SF-268; SF-268,92.06%
same,melting point,,196 to 197 °C
same,Growth percent,PC-3; PC-3,75.02%
same,Growth percent,IGROV1; IGROV1,83.31%
same,Growth percent,HT29; HT29,105.11%
same,Growth percent,UACC-257; UACC-257,103.68%
same,Growth percent,RPMI-8226; RPMI-8226,94.56%
same,Growth percent,BT-549; BT-549,105.53%
same,Growth percent,RXF 393; RXF 393,97.03%
same,Growth percent,NCI-H460; NCI-H460,91.29%
same,Growth percent,HOP-62; HOP-62,101.46%
same,Growth percent,HCT-116; HCT-116,65.37%
same,Growth percent,NCI/ADR-RES; NCI/ADR-RES,95.91%
same,Growth percent,K-562; K-562,102.86%
same,Growth percent,HCC-2998; HCC-2998,109.83%
same,Growth percent,OVCAR-5; OVCAR-5,98.06%
same,Growth percent,NCI-H23; NCI-H23,91.11%
same,Growth percent,SNB-75; SNB-75,81.91%
same,Growth percent,TK-10; TK-10,127.96%
same,Growth percent,KM12; KM12,112.90%
same,Growth percent,OVCAR-8; OVCAR-8,74.91%
same,Growth percent,NCI-H522; NCI-H522,83.95%
same,Growth percent,MCF7; MCF7,46.14%
same,Growth percent,MALME-3M; MALME-3M,93.42%
same,Growth percent,COLO 205; COLO 205,103.96%
same,Growth percent,786-0; 786-0,97.69%
same,Growth percent,SK-MEL-28; SK-MEL-28,101.79%
same,Growth percent,SF-539; SF-539,91.20%
same,Growth percent,M14; M14,103.41%
same,Growth percent,NCI-H226; NCI-H226,93.26%
same,Growth percent,A498; A498,93.00%
same,Growth percent,T-47D; T-47D,72.43%
same,Growth percent,OVCAR-3,91.85%
same,Growth percent,SW-620; SW-620,87.98%
same,Growth percent,A549/ATCC; A549/ATCC,85.28%
same,Growth percent,CCRF-CEM; CCRF-CEM,92.23%
same,Growth percent,MDA-MB-486; MDA-MB-486,108.92%
same,Growth percent,HS 578T; HS 578T,94.22%
same,Growth percent,OVCAR-4; OVCAR-4,72.10%
same,Growth percent,UACC-62; UACC-62,93.23%
same,"Growth percent, Delta",60 cancer cell lines; delta over panel,46.48%
same,"Growth percent, Mean",60 cancer cell lines; mean over panel,92.62%
same,"Growth percent, Range",60 cancer cell lines; range over panel,81.82%
same,Growth percent,MDA-MB-435; MDA-MB-435,106.98%
same,Growth percent,DU-145; DU-145,104.25%
same,Growth percent,MOLT-4; MOLT-4,92.42%
same,Growth percent,HCT-15; HCT-15,91.71%
same,Growth percent,HL-60(TB); HL-60(TB),107.06%
same,Growth percent,SK-MEL-5; SK-MEL-5,97.00%
same,Growth percent,SR; SR,85.52%
same,Growth percent,SF-295; SF-295,92.22%
same,Growth percent,MDA-MB-231/ATCC; MDA-MB-231/ATCC,77.17%
same,Growth percent,CAKI-1; CAKI-1,72.76%
same,Growth percent,SK-OV-3; SK-OV-3,94.54%
